Assay results published in US10597388B2, “Pyridazinone herbicides” (FMC CORPORATION, priority 2014, dated 2020).

Tests used:
Test in all cases: Test E greenhouse herbicide test, pre- and postemergence
Assay type in all cases: in vivo
[1] = test system: foxtail, green (green foxtail, Setaria viridis); conditions: Preemergence
In short: (§1)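 For each species, sown seed in silt loam and young plants (2 to 18 cm) in a peat/vermiculite medium were each treated with compound dissolved in surfactant-containing, non-phytotoxic solvent. After 14 to 21 d under greenhouse conditions, effects were visually rated, 100 meaning complete control.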

[2] = test system: Italian ryegrass (Lolium multiflorum)
In short: as §1

[3] = test system: beggarticks (hairy beggarticks, Bidens pilosa)
In short: as §1

[4] = test system: barnyardgrass (Echinochloa crus-galli)
In short: as §1

[5] = test system: sandbur (southem sandbur, Cenchrus echinatus)
In short: as §1

[6] = test system: lambsquarters (Chenopodium album); conditions: Preemergence
In short: as §1

kochia (Kochia scoparia) = test system: kochia (Kochia scoparia)
In short: as §1

soybean (Glycine max) = test system: soybean (Glycine max)
In short: as §1

[7] = test system: panicum, fall (fall panicum, Panicum dichotomiflorum)
In short: as §1

[8] = test system: nutsedge, yellow (yellow nutsedge, Cyperus esculentus); conditions: Preemergence
In short: as §1

[9] = 62 g ai/ha, scale 0 to 100 (0 no effect, 100 complete control)
[10] = 31 g ai/ha, scale 0 to 100, 0 no effect, 100 complete control
[11] = 125 g ai/ha, visual, scale 0 no effect to 100 complete control
[12] = 250 g ai/ha, visual, scale 0 no effect to 100 complete control
[13] = 62 g ai/ha, Preemergence, scale 0 to 100 (0 no effect, 100 complete control)
[14] = 125 g ai/ha, Postemergence, scale 0 to 100 (0 no effect, 100 complete control)
[15] = 125 g ai/ha, Preemergence, scale 0 to 100 (0 no effect, 100 complete control)
[16] = 250 g ai/ha, Postemergence, scale 0 to 100 (0 no effect, 100 complete control)
[17] = Preemergence, 31 g ai/ha, scale 0 to 100, 0 no effect, 100 complete control
[18] = Preemergence, 250 g ai/ha, visual, scale 0 no effect to 100 complete control
[19] = Preemergence, 125 g ai/ha, visual, scale 0 no effect to 100 complete control
[20] = 62 g ai/ha, Postemergence, scale 0 to 100 (0 no effect, 100 complete control)
[21] = Postemergence, 31 g ai/ha, visual, scale 0 no effect to 100 complete control
[22] = Postemergence, 16 g ai/ha, visual, scale 0 no effect to 100 complete control

Structure (SMILES): CCC(=O)Oc1c(C)nn(C)c(=O)c1-c1c(C)sc2c(C)cc(C)cc12 [Compound 28]
- Plant response rating, Foxtail, Green [1, 9]: 98
- Plant response rating, Foxtail, Green [1, 10]: 65
- Plant response rating, Foxtail, Green [1, 11]: 100
- Plant response rating, Foxtail, Green [1, 12]: 100
- Plant response rating, Ryegrass, Italian [2, 13]: 80
- Plant response rating, Ryegrass, Italian [2, 14]: 75
- Plant response rating, Ryegrass, Italian [2, 15]: 95
- Plant response rating, Ryegrass, Italian [2, 16]: 75
- Plant response rating, Ryegrass, Italian [2, 17]: 70
- Plant response rating, Ryegrass, Italian [2, 18]: 100
- Plant response rating, Beggarticks [3, 13]: 100
- Plant response rating, Beggarticks [3, 14]: 100
- Plant response rating, Beggarticks [3, 16]: 100
- Plant response rating, Beggarticks [3, 17]: 100
- Plant response rating, Beggarticks [3, 19]: 100
- Plant response rating, Beggarticks [3, 18]: 100
- Plant response rating, Barnyardgrass [4, 13]: 20
- Plant response rating, Barnyardgrass [4, 14]: 50
- Plant response rating, Barnyardgrass [4, 16]: 60
- Plant response rating, Barnyardgrass [4, 17]: 20
- Plant response rating, Barnyardgrass [4, 19]: 65
- Plant response rating, Barnyardgrass [4, 18]: 90
- Plant response rating, Sandbur [5, 13]: 65
- Plant response rating, Sandbur [5, 14]: 60
- Plant response rating, Sandbur [5, 15]: 80
- Plant response rating, Sandbur [5, 16]: 80
- Plant response rating, Sandbur [5, 17]: 15
- Plant response rating, Sandbur [5, 18]: 85
- Plant response rating, Lambsquarters [6, 9]: 100
- Plant response rating, Lambsquarters [6, 10]: 100
- Plant response rating, Lambsquarters [6, 11]: 100
- Plant response rating, Lambsquarters [6, 12]: 98
- Plant response rating, Kochia (kochia (Kochia scoparia); [13]): 0
- Plant response rating, Kochia (kochia (Kochia scoparia); [14]): 75
- Plant response rating, Kochia (kochia (Kochia scoparia); [16]): 90
- Plant response rating, Kochia (kochia (Kochia scoparia); [17]): 0
- Plant response rating, Kochia (kochia (Kochia scoparia); [19]): 60
- Plant response rating, Kochia (kochia (Kochia scoparia); [18]): 100
- Plant response rating, Soybean (soybean (Glycine max); [13]): 0
- Plant response rating, Soybean (soybean (Glycine max); [14]): 50
- Plant response rating, Soybean (soybean (Glycine max); [15]): 0
- Plant response rating, Soybean (soybean (Glycine max); [16]): 60
- Plant response rating, Soybean (soybean (Glycine max); [17]): 0
- Plant response rating, Soybean (soybean (Glycine max); [18]): 0
- Plant response rating, Panicum, Fall [7, 13]: 95
- Plant response rating, Panicum, Fall [7, 14]: 70
- Plant response rating, Panicum, Fall [7, 15]: 98
- Plant response rating, Panicum, Fall [7, 16]: 90
- Plant response rating, Panicum, Fall [7, 17]: 90
- Plant response rating, Panicum, Fall [7, 18]: 100
- Plant response rating, Nutsedge, Yellow [8, 9]: 20
- Plant response rating, Nutsedge, Yellow ([8]; 125 g ai/ha, scale 0 to 100 (0 no effect, 100 complete control)): 70
- Plant response rating, Nutsedge, Yellow [8, 10]: 20
- Plant response rating, Nutsedge, Yellow [8, 12]: 95

Structure (SMILES): COc1nn(C)c(=O)c(-c2c(C)sc3ccc(Cl)cc23)c1O [Compound 100]
- Plant response rating, Ryegrass, Italian [2, 20]: 60
- Plant response rating, Ryegrass, Italian [2, 14]: 70
- Plant response rating, Ryegrass, Italian [2, 16]: 85
- Plant response rating, Ryegrass, Italian [2, 21]: 50
- Plant response rating, Beggarticks [3, 20]: 80
- Plant response rating, Beggarticks [3, 14]: 90
- Plant response rating, Beggarticks [3, 16]: 100
- Plant response rating, Beggarticks [3, 21]: 75
- Plant response rating, Barnyardgrass [4, 20]: 40
- Plant response rating, Barnyardgrass [4, 14]: 30
- Plant response rating, Barnyardgrass [4, 16]: 50
- Plant response rating, Barnyardgrass [4, 21]: 30
- Plant response rating, Sandbur [5, 14]: 40
- Plant response rating, Sandbur [5, 16]: 50
- Plant response rating, Sandbur [5, 21]: 20
- Plant response rating, Kochia (kochia (Kochia scoparia); [20]): 80
- Plant response rating, Kochia (kochia (Kochia scoparia); [14]): 80
- Plant response rating, Kochia (kochia (Kochia scoparia); [16]): 100
- Plant response rating, Kochia (kochia (Kochia scoparia); [21]): 60
- Plant response rating, Soybean (soybean (Glycine max); [14]): 0
- Plant response rating, Soybean (soybean (Glycine max); [16]): 0
- Plant response rating, Soybean (soybean (Glycine max); [21]): 0
- Plant response rating, Panicum, Fall [7, 20]: 50
- Plant response rating, Panicum, Fall [7, 14]: 70
- Plant response rating, Panicum, Fall [7, 16]: 80
- Plant response rating, Panicum, Fall [7, 21]: 30

Structure (SMILES): CCC(=O)Oc1c(C)nn(C)c(=O)c1-c1c(C)sc2ccc(C)cc12 [Compound 42]
- Plant response rating, Ryegrass, Italian [2, 20]: 70
- Plant response rating, Ryegrass, Italian [2, 14]: 85
- Plant response rating, Ryegrass, Italian [2, 16]: 90
- Plant response rating, Ryegrass, Italian [2, 21]: 50
- Plant response rating, Beggarticks [3, 20]: 95
- Plant response rating, Beggarticks [3, 14]: 100
- Plant response rating, Beggarticks [3, 16]: 100
- Plant response rating, Beggarticks [3, 21]: 95
- Plant response rating, Barnyardgrass [4, 20]: 30
- Plant response rating, Barnyardgrass [4, 14]: 30
- Plant response rating, Barnyardgrass [4, 16]: 35
- Plant response rating, Barnyardgrass [4, 21]: 20
- Plant response rating, Sandbur [5, 20]: 50
- Plant response rating, Sandbur [5, 14]: 60
- Plant response rating, Sandbur [5, 16]: 60
- Plant response rating, Sandbur [5, 21]: 35
- Plant response rating, Kochia (kochia (Kochia scoparia); [20]): 85
- Plant response rating, Kochia (kochia (Kochia scoparia); [14]): 95
- Plant response rating, Kochia (kochia (Kochia scoparia); [16]): 98
- Plant response rating, Kochia (kochia (Kochia scoparia); [21]): 75
- Plant response rating, Soybean (soybean (Glycine max); [20]): 20
- Plant response rating, Soybean (soybean (Glycine max); [14]): 30
- Plant response rating, Soybean (soybean (Glycine max); [16]): 50
- Plant response rating, Soybean (soybean (Glycine max); [21]): 10
- Plant response rating, Panicum, Fall [7, 20]: 50
- Plant response rating, Panicum, Fall [7, 14]: 80
- Plant response rating, Panicum, Fall [7, 16]: 95
- Plant response rating, Panicum, Fall [7, 21]: 60

Structure (SMILES): CSCC(=O)Oc1c(C)nn(C)c(=O)c1-c1cccc2ccccc12 [Compound 171]
- Plant response rating, Ryegrass, Italian [2, 20]: 75
- Plant response rating, Ryegrass, Italian [2, 14]: 85
- Plant response rating, Ryegrass, Italian [2, 16]: 90
- Plant response rating, Ryegrass, Italian [2, 21]: 65
- Plant response rating, Beggarticks [3, 20]: 95
- Plant response rating, Beggarticks [3, 14]: 100
- Plant response rating, Beggarticks [3, 16]: 100
- Plant response rating, Beggarticks [3, 21]: 80
- Plant response rating, Barnyardgrass [4, 20]: 45
- Plant response rating, Barnyardgrass [4, 14]: 50
- Plant response rating, Barnyardgrass [4, 16]: 50
- Plant response rating, Barnyardgrass [4, 21]: 40
- Plant response rating, Sandbur [5, 14]: 50
- Plant response rating, Sandbur [5, 16]: 60
- Plant response rating, Sandbur [5, 21]: 30
- Plant response rating, Kochia (kochia (Kochia scoparia); [20]): 95
- Plant response rating, Kochia (kochia (Kochia scoparia); [14]): 100
- Plant response rating, Kochia (kochia (Kochia scoparia); [16]): 100
- Plant response rating, Kochia (kochia (Kochia scoparia); [21]): 90
- Plant response rating, Soybean (soybean (Glycine max); [14]): 50
- Plant response rating, Soybean (soybean (Glycine max); [16]): 70
- Plant response rating, Soybean (soybean (Glycine max); [21]): 40
- Plant response rating, Panicum, Fall [7, 20]: 50
- Plant response rating, Panicum, Fall [7, 14]: 60
- Plant response rating, Panicum, Fall [7, 16]: 75
- Plant response rating, Panicum, Fall [7, 21]: 40

Structure (SMILES): CC(=O)Oc1c(C)nn(C)c(=O)c1-c1ccc(F)c2ccccc12 [Compound 90]
- Plant response rating, Ryegrass, Italian [2, 20]: 85
- Plant response rating, Ryegrass, Italian [2, 14]: 85
- Plant response rating, Ryegrass, Italian [2, 22]: 75
- Plant response rating, Ryegrass, Italian [2, 21]: 80
- Plant response rating, Beggarticks [3, 20]: 98
- Plant response rating, Beggarticks [3, 14]: 100
- Plant response rating, Beggarticks [3, 22]: 85
- Plant response rating, Beggarticks [3, 21]: 90
- Plant response rating, Barnyardgrass [4, 20]: 40
- Plant response rating, Barnyardgrass [4, 14]: 50
- Plant response rating, Barnyardgrass [4, 22]: 30
- Plant response rating, Barnyardgrass [4, 21]: 30
- Plant response rating, Sandbur [5, 14]: 50
- Plant response rating, Sandbur [5, 22]: 40
- Plant response rating, Sandbur [5, 21]: 40
- Plant response rating, Kochia (kochia (Kochia scoparia); [20]): 95
- Plant response rating, Kochia (kochia (Kochia scoparia); [14]): 100
- Plant response rating, Kochia (kochia (Kochia scoparia); [22]): 90
- Plant response rating, Kochia (kochia (Kochia scoparia); [21]): 90
- Plant response rating, Soybean (soybean (Glycine max); [14]): 60
- Plant response rating, Soybean (soybean (Glycine max); [22]): 20
- Plant response rating, Soybean (soybean (Glycine max); [21]): 30
- Plant response rating, Panicum, Fall [7, 20]: 60
- Plant response rating, Panicum, Fall [7, 14]: 70
- Plant response rating, Panicum, Fall [7, 22]: 40
- Plant response rating, Panicum, Fall [7, 21]: 60
